Measurements taken from patent publication US11760754B2, “Heterocyclic mitochondrial activity inhibitors and uses thereof” (UNIVERSITÉ DE MONTRÉAL, priority 2017, dated 2023).

Legend:
OCI-AML3 cells = assay: OCI-AML3 cell growth inhibition, dose-response viability assay (CellTiterGlo); assay type: cell-based; conditions: Homo sapiens, OCI-AML-3, 144 h, read-out: AML-3 EC50
Outline: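 OCI-AML3 cells seeded, then exposed to compound in serial dilutions from 10 μM to 0.5 nM, in duplicate or quadruplicate. Viability read by CellTiter-Glo.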

MLL-AF9 cells = assay: MLL-AF9 leukemia cell growth inhibition, dose-response viability assay (CellTiterGlo); assay type: cell-based, murine; conditions: Mus musculus, MLL-AF9, 120 h, read-out: MLL-AF9 EC50
Outline: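 Murine MLL-AF9 leukemia cells (female, MSCV MLL-AF9 IRES Puro transduced) were treated with serial compound dilutions from 10 μM to 0.5 nM in duplicates or quadruplicates. Viability read by CellTiterGlo dose-response.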

Compound | EC50 (OCI-AML3 cells) [nM] | EC50 (MLL-AF9 cells) [nM]
Fc1cc(C(F)(F)F)ccc1/C=C/c1nc(COc2ccc(COCCn3ccnn3)cc2)co1 [Compound 115, (E)-4-((4-((2-(1H-1,2,3-triazol-1-yl)ethoxy)methyl)phenoxy)methyl)-2-(2-fluoro-4-(trifluoromethyl)styryl)oxazole] | 500 to 1000 | 100 to 500
Fc1cc(Cl)ccc1/C=C/c1nc(COc2ccc(CCCCn3ccnn3)cc2)co1 [Compound 116, (E)-4-((4-(4-(1H-1,2,3-triazol-1-yl)butyl)phenoxy)methyl)-2-(4-chloro-2-fluorostyryl)oxazole] | 50 to 100 | 50 to 100
Fc1ccc(/C=C/c2nc(COc3ccc(CCCCn4ccnn4)cc3)co2)c(Cl)c1 [Compound 117, (E)-4-((4-(4-(1H-1,2,3-triazol-1-yl)butyl)phenoxy)methyl)-2-(2-chloro-4-fluorostyryl)oxazole] | 100 to 500 | 100 to 500
Clc1ccc(/C=C/c2nc(COc3ccc(CCCCn4ccnn4)cc3)co2)c(Cl)c1 [Compound 119, (E)-4-((4-(4-(1H-1,2,3-triazol-1-yl)butyl)phenoxy)methyl)-2-(2,4-dichlorostyryl)oxazole] | 100 to 500 | 100 to 500
Fc1ccc(/C=C/c2nc(COc3ccc(CCCCn4ccnn4)cc3)co2)cc1F [Compound 121, (E)-4-((4-(4-(1H-1,2,3-triazol-1-yl)butyl)phenoxy)methyl)-2-(3,4-difluorostyryl)oxazole] | 50 to 100 | 50 to 100
O=[N+]([O-])c1cc(F)cc2cc(-c3nc(COc4ccc(CCCCn5ccnn5)cc4)co3)[nH]c12 [Compound 126, 4-((4-(4-(1H-1,2,3-triazol-1-yl)butyl)phenoxy)methyl)-2-(5-fluoro-7-nitro-1H-indol-2-yl)oxazole] | 1000 to 10000 | > 10000
Fc1ccc2cc(-c3nc(COc4ccc(CCCCn5ccnn5)cc4)co3)[nH]c2c1 [Compound 127, 4-((4-(4-(H-1,2,3-triazol-1-yl)butyl)phenoxy)methyl)-2-(6-fluoro-1H-indol-2-yl)oxazole] | < 50 | < 50

Results, then the compound that gave them:

EC50 (OCI-AML3 cells) [nM] | EC50 (MLL-AF9 cells) [nM] | Compound
100 to 500 | 100 to 500 | Clc1ccccc1/C=C/c1nc(COc2ccc(CCCCn3ccnn3)cc2)co1 [Compound 118, (E)-4-((4-(4-(1H-1,2,3-triazol-1-yl)butyl)phenoxy)methyl)-2-(2-chlorostyryl)oxazole]
100 to 500 | < 50 | Fc1cc(/C=C/c2nc(COc3ccc(CCCCn4ccnn4)cc3)co2)cc(F)c1F [Compound 120, (E)-4-((4-(4-(1H-1,2,3-triazol-1-yl)butyl)phenoxy)methyl)-2-(3,4,5-trifluorostyryl)oxazole]
< 50 | < 50 | N#Cc1ccc(/C=C/c2nc(COc3ccc(CCCCn4ccnn4)cc3)co2)c(F)c1 [Compound 122, (E)-4-(2-(4-((4-(4-(1H-1,2,3-triazol-1-yl)butyl)phenoxy)methyl)oxazol-2-yl)vinyl)-3-fluorobenzonitrile]
100 to 500 | 100 to 500 | CS(=O)(=O)c1ccc(/C=C/c2nc(COc3ccc(CCCCn4ccnn4)cc3)co2)c(F)c1 [Compound 123, (E)-4-((4-(4-(1H-1,2,3-triazol-1-yl)butyl)phenoxy)methyl)-2-(2-fluoro-4-(methylsulfonyl)styryl)oxazole]
< 50 | 50 to 100 | Fc1cc(OC(F)(F)F)ccc1/C=C/c1nc(COc2ccc(CCCCn3ccnn3)cc2)co1 [Compound 124, (E)-4-((4-(4-(1H-1,2,3-triazol-1-yl)butyl)phenoxy)methyl)-2-(2-fluoro-4-(trifluoromethoxy)styryl)oxazole]
50 to 100 | 100 to 500 | COC(=O)c1ccc(/C=C/c2nc(COc3ccc(CCCCn4ccnn4)cc3)co2)c(F)c1 [Compound 125, methyl (E)-4-(2-(4-((4-(4-(1H-1,2,3-triazol-1-yl)butyl)phenoxy)methyl)oxazol-2-yl)vinyl)-3-fluorobenzoate]
